Data published in patent US6825230B2, “Spiro and dispiro 1,2,4-trixolane antimalarials” (Medicines for Malaria Venture MMV, priority 2002, dated 2004).
Values after ≈ are worked out from the molar mass of the structure shown. Where two headings read alike, the source gives them in different places.

Assays:
[1] = tested on: chloroquine-resistant K1 strain of P. falciparum; test: In vitro antimalarial semiautomated microdilution assay ([3H]-hypoxanthine incorporation), K1 strain; format: cell-based, Plasmodium falciparum; details: Plasmodium falciparum
Outline: (§1)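 Asynchronous stock-culture parasites (intraerythrocytic forms), serial compound dilutions; readout [3H]-hypoxanthine uptake; IC50 via Logit regression.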

[2] = tested on: chloroquine-sensitive NF54 strain of P. falciparum; test: In vitro antimalarial semiautomated microdilution assay ([3H]-hypoxanthine incorporation), NF54 strain; format: cell-based, Plasmodium falciparum; details: Plasmodium falciparum
Outline: as §1

[3] = tested on: ANKA strain of P. berghei; test: Single dose STI in vivo screen in infected mice; set-up: species or system Plasmodium berghei; details: for Survival (days) 10 mg/kg po: single 10 mg/kg po in 3% ethanol and 7% Tween 80; for Survival (days) 10 mg/kg po / Survival (days) 10 mg/kg SSV po / Survival (days) 10 mg/kg sc: untreated 6-7 days; for Activity (%) 10 mg/kg po: single 10 mg/kg po in 3% ethanol and 7% Tween 80 on day 1 post-infection; for Activity (%) 10 mg/kg po / Activity (%) 10 mg/kg SSV po / Activity (%) 10 mg/kg sc: percent reduction in parasitemia on day 3; for Survival (days) 10 mg/kg SSV po: single 10 mg/kg po in SSV; for Activity (%) 10 mg/kg SSV po: single 10 mg/kg po in standard suspending vehicle (SSV) on day 1 post-infection; for Survival (days) 10 mg/kg sc: single 10 mg/kg sc in 3% ethanol and 7% Tween 80; for Activity (%) 10 mg/kg sc: single 10 mg/kg sc in 3% ethanol and 7% Tween 80 on day 1 post-infection
[4] = K1, 72 h, read-out: IC50 (ng/ml) K1, chloroquine-resistant K1 strain, 72 h incubation
[5] = NF54, 72 h, read-out: IC50 (ng/ml) NF54, chloroquine-sensitive NF54 strain, 72 h incubation
[6] = chloroquine-resistant K1 strain, 72 h incubation, read-out: IC50 (ng/ml) K1
[7] = chloroquine-sensitive NF54 strain, 72 h incubation, read-out: IC50 (ng/ml) NF54

SMILES	IC50 [1, 4] [ng/mL]	IC50 [2, 5] [ng/mL]	Survival (days) 10 mg/kg po [3] [days]	Activity (%) 10 mg/kg po [3] [%]	Survival (days) 10 mg/kg SSV po [3] [days]	Activity (%) 10 mg/kg SSV po [3] [%]	Survival (days) 10 mg/kg sc [3] [days]	Activity (%) 10 mg/kg sc [3] [%]	IC50 [1, 6] [ng/mL]	IC50 [2, 7] [ng/mL]
NC(=O)CN(CC(N)=O)C[C@H]1CC[C@]2(CC1)OOC1(O2)C2CC3CC(C2)CC1C3 (stereo partly shown) [OZ236]	2 (≈ 4.91 nM)	2 (≈ 4.91 nM)	6.3	89	7.7	86	7.7	98.61		
N=C(N)NC[C@H]1CC[C@]2(CC1)OOC1(O2)C2CC3CC(C2)CC1C3 (stereo partly shown) [OZ237]	5.7 (≈ 17 nM)	7.1 (≈ 21.2 nM)	6.0	5	6.0	9	6.7	52		
NC(=O)C[C@H]1CC[C@]2(CC1)OOC1(O2)C2CC3CC(C2)CC1C3 (stereo partly shown) [OZ243]	0.91 (≈ 2.83 nM)	1.1 (≈ 3.42 nM)	7.3	87	8.7	97	6.3	70		
O=C(C[C@H]1CC[C@]2(CC1)OOC1(O2)C2CC3CC(C2)CC1C3)N1CCN(c2ccccc2)CC1 (stereo partly shown) [OZ244]			5.7	6	5.3	0	6.3	18	4 (≈ 8.57 nM)	4.2 (≈ 9 nM)
OC1(c2nccs2)CCC2(CC1)OOC1(O2)C2CC3CC(C2)CC1C3 (stereo not shown) [OZ247]			6.3	57	6.0	27	9.0	99.85	1.8 (≈ 4.95 nM)	2.3 (≈ 6.33 nM)
c1c[nH]c([C@H]2CC[C@]3(CC2)OOC2(O3)C3CC4CC(C3)CC2C4)n1 (stereo partly shown) [OZ251]			6.7	29	6.0	6	9.0	99.87	0.6 (≈ 1.82 nM)	0.35 (≈ 1.06 nM)
c1csc(NC[C@H]2CC[C@]3(CC2)OOC2(O3)C3CC4CC(C3)CC2C4)n1 (stereo partly shown) [OZ252]			8.3	98.91	9.0	99.49	9.3	99.82	2.3 (≈ 6.11 nM)	2.2 (≈ 5.84 nM)
C1C2CC3CC1CC(C2)C31OO[C@]2(CC[C@@H](CNC3CC3)CC2)O1 (stereo partly shown) [OZ253]			7.0	75	6.7	59	9.3	99.82	0.56 (≈ 1.68 nM)	0.45 (≈ 1.35 nM)
C1C2CC3CC1CC(C2)C31OO[C@]2(CC[C@@H](CN(C[C@H]3CC[C@]4(CC3)OOC3(O4)C4CC5CC(C4)CC3C5)C3CC3)CC2)O1 (stereo partly drawn) [OZ254, N,N-Bis(cis-adamantane-2-spiro-3′-1′,2′,4′-trioxaspiro[4.5]decane-8′-methyl)cyclopropylamine]			6.0	27	5.7	11	5.7	2	> 100	57 (≈ 93.5 nM)
O=C(NC[C@H]1CC[C@]2(CC1)OOC1(O2)C2CC3CC(C2)CC1C3)c1ccncc1 (stereo partly shown) [OZ255]			9.0	99.61	8.7	99.54	10.0	99.92	2.2 (≈ 5.52 nM)	1.1 (≈ 2.76 nM)
CS(=O)(=O)NC[C@H]1CC[C@]2(CC1)OOC1(O2)C2CC3CC(C2)CC1C3 (stereo partly shown) [OZ257]			8.3	99.00	7.7	99.49	9.7	99.84	42 (≈ 113 nM)	21 (≈ 56.5 nM)
